Measurements published in publication PMC8079033, “Design, synthesis, anticancer evaluation, and molecular modelling studies of novel tolmetin derivatives as potential VEGFR-2 inhibitors and apoptosis inducers” (Journal of Enzyme Inhibition and Medicinal Chemistry, 2021).

Columns and labels:
Test in all cases: NCI 60-cell line one-dose antiproliferative screen (SRB)
Type in all cases: cell-based
786-0 = conditions: Homo sapiens, read-out: growth inhibition % (GI%)
In short: (§1)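 Tumour cells pre-incubated 24 h, then dosed once at 10 µM (from DMSO stock diluted in medium with gentamicin). After 48 h, TCA fixation and SRB staining; absorbance 515 nm converted to growth inhibition percentage.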

OVCAR-4 = conditions: Homo sapiens, read-out: growth inhibition % (GI%)
In short: as §1

HCT-15 = conditions: Homo sapiens, read-out: growth inhibition % (GI%)
In short: as §1

UO-31 = conditions: Homo sapiens, read-out: growth inhibition % (GI%)
In short: as §1

SNB-75 = conditions: Homo sapiens, read-out: growth inhibition % (GI%)
In short: as §1

NCI-H23 = conditions: Homo sapiens, read-out: growth inhibition % (GI%)
In short: as §1

K-562 = conditions: Homo sapiens, K562, read-out: growth inhibition % (GI%)
In short: as §1

SF-268 = conditions: Homo sapiens, read-out: growth inhibition % (GI%)
In short: as §1

MDA-MB-231/ATCC = conditions: Homo sapiens, read-out: growth inhibition % (GI%)
In short: as §1

MCF7 = conditions: Homo sapiens, read-out: growth inhibition % (GI%)
In short: as §1

SN 12 C = conditions: Homo sapiens, SN12C, read-out: growth inhibition % (GI%)
In short: as §1

UACC-62 = conditions: Homo sapiens, read-out: growth inhibition % (GI%)
In short: as §1

OVCAR-8 = conditions: Homo sapiens, read-out: growth inhibition % (GI%)
In short: as §1

EKVX = conditions: Homo sapiens, read-out: growth inhibition % (GI%)
In short: as §1

T-47D = conditions: Homo sapiens, T47D, read-out: growth inhibition % (GI%)
In short: as §1

NCI/ADR-RES = conditions: Homo sapiens, read-out: growth inhibition % (GI%)
In short: as §1

RPMI-8226 = conditions: Homo sapiens, read-out: growth inhibition % (GI%)
In short: as §1

IGROV1 = conditions: Homo sapiens, IGROV-1, read-out: growth inhibition % (GI%)
In short: as §1

RXF 393 = conditions: Homo sapiens, read-out: growth inhibition % (GI%)
In short: as §1

U251 = conditions: Homo sapiens, U-251, read-out: growth inhibition % (GI%)
In short: as §1

SF-539 = conditions: Homo sapiens, read-out: growth inhibition % (GI%)
In short: as §1

HOP-62 = conditions: Homo sapiens, read-out: growth inhibition % (GI%)
In short: as §1

HCT-116 = conditions: Homo sapiens, read-out: growth inhibition % (GI%)
In short: as §1

NCI-H322M = conditions: Homo sapiens, read-out: growth inhibition % (GI%)
In short: as §1

NCI-H226 = conditions: Homo sapiens, read-out: growth inhibition % (GI%)
In short: as §1

CAKI-1 = conditions: Homo sapiens, read-out: growth inhibition % (GI%)
In short: as §1

PC-3 = conditions: Homo sapiens, read-out: growth inhibition % (GI%)
In short: as §1

MDA-MB-468 = conditions: Homo sapiens, read-out: growth inhibition % (GI%)
In short: as §1

A549/ATCC = conditions: Homo sapiens, read-out: growth inhibition % (GI%)
In short: as §1

SK-MEL-5 = conditions: Homo sapiens, read-out: growth inhibition % (GI%)
In short: as §1

CCRF-CEM = conditions: Homo sapiens, read-out: growth inhibition % (GI%)
In short: as §1

NCI-H522 = conditions: Homo sapiens, read-out: growth inhibition % (GI%)
In short: as §1

M14 = conditions: Homo sapiens, read-out: growth inhibition % (GI%)
In short: as §1

| Compound | inhibition at 10 µM (HCT-15) | inhibition at 10 µM (UO-31) | inhibition at 10 µM (SNB-75) | inhibition at 10 µM (NCI-H23) | inhibition at 10 µM (K-562) | inhibition at 10 µM (SF-268) | inhibition at 10 µM (MDA-MB-231/ATCC) | inhibition at 10 µM (MCF7) | inhibition at 10 µM (SN 12 C) | inhibition at 10 µM (UACC-62) | inhibition at 10 µM (OVCAR-8) | inhibition at 10 µM (EKVX) | inhibition at 10 µM (T-47D) | inhibition at 10 µM (NCI/ADR-RES) | inhibition at 10 µM (RPMI-8226) | inhibition at 10 µM (IGROV1) | inhibition at 10 µM (RXF 393) | inhibition at 10 µM (U251) | inhibition at 10 µM (SF-539) | inhibition at 10 µM (HOP-62) | further results |
| --- | --- | --- | --- | --- | --- | --- | --- | --- | --- | --- | --- | --- | --- | --- | --- | --- | --- | --- | --- | --- | --- |
| Cc1ccc(C(=O)c2ccc(CC(=O)NN3C(=O)CCC3=O)n2C)cc1 [Compound 7a, N-(2,5-Dioxopyrrolidin-1-yl)-2–(1-methyl-5–(4-methylbenzoyl)-1H-pyrrol-2-yl) acetamide] | < 10% | 41.2% | 40.9% | 24.8% | 11.2% | 11.9% | 13.7% | 14.4% | 19.1% | 12.4% | 11% | 23.9% | 42.8% | 12.8% | 20.2% | 22.3% | < 10% | < 10% | < 10% | 15.5% | inhibition at 10 µM (786-0): < 10%; inhibition at 10 µM (OVCAR-4): 31.9%; inhibition at 10 µM (HCT-116): 11.3%; inhibition at 10 µM (NCI-H322M): < 10%; inhibition at 10 µM (NCI-H226): 22.6%; inhibition at 10 µM (CAKI-1): 28.3%; inhibition at 10 µM (PC-3): 10%; inhibition at 10 µM (MDA-MB-468): < 10%; inhibition at 10 µM (A549/ATCC): 11.1%; inhibition at 10 µM (SK-MEL-5): < 10%; inhibition at 10 µM (CCRF-CEM): < 10%; inhibition at 10 µM (NCI-H522): 30.8%; inhibition at 10 µM (M14): < 10% |
| Cc1ccc(C(=O)c2ccc(CC(=O)NN=Cc3cccc(O)c3O)n2C)cc1 [Compound 5b, N′-(2,3-Dihydroxybenzylidene)-2–(1-methyl-5–(4-methylbenzoyl)-1H-pyrrol-2-yl) acetohydrazide] | 84.3% | 85.8% | 74.6% | 54.6% | 69.6% | 62.8% | 54.7% | 84% | 53.2% | 60.9% | 61.4% | 41.2% | 74.1% | 80.9% | 64.9% | 48.8% | 70.3% | 74% | 66.2% | 50.1% | inhibition at 10 µM (786-0): 23.6%; inhibition at 10 µM (OVCAR-4): 70.9%; inhibition at 10 µM (HCT-116): 69.2%; inhibition at 10 µM (NCI-H322M): 45.6%; inhibition at 10 µM (NCI-H226): 31%; inhibition at 10 µM (CAKI-1): 62.7%; inhibition at 10 µM (PC-3): 40.8%; inhibition at 10 µM (MDA-MB-468): 45.1%; inhibition at 10 µM (A549/ATCC): 41.3%; inhibition at 10 µM (SK-MEL-5): 65.4%; inhibition at 10 µM (CCRF-CEM): 86.9%; inhibition at 10 µM (NCI-H522): 51.2%; inhibition at 10 µM (M14): 71.5% |
| Cc1ccc(C(=O)c2ccc(CC(=O)NNC(=O)Nc3ccc(Cl)c(C(F)(F)F)c3)n2C)cc1 [Compound 8c, N-(4-Chloro-3-(trifluoromethyl)phenyl)-2–(2-(1-methyl-5–(4-methylbenzoyl)-1H-pyrrol-2-yl)acetyl)hydrazinecarboxamide] | 10.9% | 38.4% | 35.7% | < 10% | < 10% | 26.3% | 16.7% | 21.7% | 10.5% | 19.7% | 10.9% | < 10% | 13.8% | < 10% | 11.3% | 36.1% | < 10% | < 10% | < 10% | 20% | inhibition at 10 µM (HCT-116): < 10%; inhibition at 10 µM (NCI-H322M): 14.4%; inhibition at 10 µM (NCI-H226): < 10%; inhibition at 10 µM (CAKI-1): 35.2%; inhibition at 10 µM (PC-3): 22.4%; inhibition at 10 µM (MDA-MB-468): 17.5%; inhibition at 10 µM (A549/ATCC): 21.7%; inhibition at 10 µM (SK-MEL-5): 22.3%; inhibition at 10 µM (CCRF-CEM): < 10%; inhibition at 10 µM (NCI-H522): 21.1%; inhibition at 10 µM (M14): 11.7% |
| Cc1ccc(C(=O)c2ccc(CC(=O)NN=Cc3ccccc3O)n2C)cc1 [Compound 5a, N′-(2-Hydroxybenzylidene)-2–(1-methyl-5–(4-methylbenzoyl)-1H-pyrrol-2-yl)aceto hydrazide] | 56.5% | 59.3% | 40.4% | 17.1% | 15.8% | 29.1% | 17.4% | 18.5% | 10.2% | 12.8% | 21% | 17.3% | 24.4% | 30.6% | 18.6% | 19.1% | 10.4% | 23.8% | 10.9% | 24% | inhibition at 10 µM (786-0): < 10%; inhibition at 10 µM (OVCAR-4): 39.8%; inhibition at 10 µM (HCT-116): < 10%; inhibition at 10 µM (NCI-H322M): 21.1%; inhibition at 10 µM (NCI-H226): < 10%; inhibition at 10 µM (CAKI-1): 35.5%; inhibition at 10 µM (PC-3): 13.2%; inhibition at 10 µM (MDA-MB-468): 18.9%; inhibition at 10 µM (A549/ATCC): 13.9%; inhibition at 10 µM (SK-MEL-5): 12.6%; inhibition at 10 µM (CCRF-CEM): 45.9%; inhibition at 10 µM (NCI-H522): 24.9%; inhibition at 10 µM (M14): 17.1% |
| Cc1ccc(C(=O)c2ccc(CC(=O)NN3C(=O)C=CC3=O)n2C)cc1 [Compound 7b, N-(2,5-Dioxo-2,5-dihydro-1H-pyrrol-1-yl)-2–(1-methyl-5–(4-methylbenzoyl)-1H-pyrrol-2-yl)acetamide] | < 10% | 35.3% | 16% | 23.9% | 16.5% | 12.3% | 11.6% | 13.2% | 14.8% | < 10% | < 10% | 25.7% | 25.5% | 12.3% | < 10% | 22.2% | 13% | < 10% | < 10% | 10.4% | inhibition at 10 µM (786-0): < 10%; inhibition at 10 µM (OVCAR-4): < 10%; inhibition at 10 µM (HCT-116): 14%; inhibition at 10 µM (NCI-H322M): < 10%; inhibition at 10 µM (NCI-H226): 22.1%; inhibition at 10 µM (CAKI-1): 20.3%; inhibition at 10 µM (PC-3): 10.7%; inhibition at 10 µM (MDA-MB-468): < 10%; inhibition at 10 µM (A549/ATCC): 12.8%; inhibition at 10 µM (SK-MEL-5): < 10%; inhibition at 10 µM (CCRF-CEM): < 10%; inhibition at 10 µM (NCI-H522): 15.9%; inhibition at 10 µM (M14): < 10% |
